These results are taken from article PMC2796824 (Journal of biomolecular screening, 2009).

Values joined by “and” are separate entries in the source; they are usually repeats but may differ in a detail not shown here. Identical values can stand only once.

Data set [1] addresses T1, MBP-MshC (Mycobacterium tuberculosis, UniProt P9WJM9). Put plainly: Mode of inhibition of dequalinium. The data set is classed as biochemical.
Data set [2] has as its target T1, MBP-MshC. Put plainly: Isothermal titration calorimetry with MBP-MshC. The data set is classed as binding. (In general: In ITC the heat of successive injections is recorded.)
In another data set the target is MBP (Escherichia coli, UniProt P0AEX9). As to the kind of experiment: Isothermal titration calorimetry with MBP tag alone. Format: binding. The following applies: ITC, 1-site model, 25 °C.
The target of data set [3] is T1, MBP-MshC. Put plainly: Confirmatory assay: CGI production by fluorescence-detected HPLC. Format: biochemical.
The target in data set [4] is T1, MBP-MshC. Put plainly: MshC coupled luminescent assay. The data set is classed as biochemical.
For another data set, the system named is N[C@@H](CS)C(=O)O. As to the kind of experiment: purified protein, by the assay type.
The mark [5] stands for this setting: IC50, quantitative CGI-HPLC confirmatory assay.

T1 sequence (P9WJM9 whole entry, looked up): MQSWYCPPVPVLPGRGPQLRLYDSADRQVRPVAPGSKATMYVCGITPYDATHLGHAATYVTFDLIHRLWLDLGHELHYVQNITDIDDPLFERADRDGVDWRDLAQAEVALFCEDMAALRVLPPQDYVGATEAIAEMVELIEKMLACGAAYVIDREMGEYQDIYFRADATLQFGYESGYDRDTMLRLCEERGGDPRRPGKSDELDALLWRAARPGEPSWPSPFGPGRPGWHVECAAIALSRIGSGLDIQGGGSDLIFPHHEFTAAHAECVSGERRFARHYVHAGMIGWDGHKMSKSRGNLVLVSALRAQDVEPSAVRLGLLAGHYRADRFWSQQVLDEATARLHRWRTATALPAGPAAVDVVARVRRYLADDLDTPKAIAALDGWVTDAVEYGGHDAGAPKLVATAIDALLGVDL

What is called Kd is a measure of binding affinity in units of concentration. By IC50 is commonly meant the midpoint of a concentration-inhibition curve. Take `Cc1cc(N)c2ccccc2[n+]1CCCCCCCCCC[n+]1c(C)cc(N)c2ccccc21` [compound 1, dequalinium chloride]: the mode of inhibition entry at MBP-MshC [1] (with respect to ATP (varied 31.3 to 4000 μM)) was “AT P-competitive inhibitor”; on MBP-MshC [1] (with respect to GI (varied 34-1100 μM)), “synergy”. Further, the Kd is 7.1 ± 0.8 µM on MBP-MshC [2]; 8.5 µM and 7 to 8.5 µM on MBP. On MBP-MshC [3] (setting [5]), the IC50 is 24 µM and ~24 µM.
For `C[n+]1ccc(Nc2ccc(NC(=O)c3ccc(Nc4cc[n+](C)c5ccc([N+](=O)[O-])cc45)cc3[N+](=O)[O-])cc2)cc1` [compound 2], the IC50 against MBP-MshC [3] (quantitative CGI-HPLC confirmatory assay) is approximately 500 µM.
As to `Nc1ncnc2c1ncn2[C@@H]1O[C@H](COS(=O)(=O)NC(=O)[C@@H](N)CS)[C@@H](O)[C@H]1O` [CysSA, 5′-O-[N-(L-cysteinyl)sulfamoyl] adenosine], the IC50 against MBP-MshC [4] was 0.24 ± 0.001 µM.
Compound `Cc1cc(N)c2ccccc2[n+]1C` [1a, 1-methyl 4-aminoquinaldinium iodide] displayed an IC50 at MBP-MshC [3] (setting [5]) of 830 µM.
In general, Km refers to the concentration of substrate that gives half-maximal velocity. As usually defined, the Vmax is the top rate of the reaction or transport when substrate is in excess. For “MBP-MshC (Mycobacterium tuberculosis H37Rv)”, in the data set on N[C@@H](CS)C(=O)O, the Km is 140 ± 40 µM and the maximum rate (Vmax) amounted to 85 ± 7 nmol/min/mg.
